Data: PubChem BioAssay AID248 (DTP/NCI, 2004)
Several values for one entry are separate records, joined by “and”; a condition that tells them apart may be missing. Identical values can stand only once. Toxic doses and inconclusive results are not listed. No stated cut-off is given here; in the data, active means T/C of 150% or more; inactive means T/C below 125%.

Tested on: L1210 leukemia ip in BDF1 mice, survival T/C
Test: NCI In Vivo Anticancer Drug Screen. Data for tumor model L1210 Leukemia (intraperitoneal) in B6D2F1 (BDF1) mice
Settings: endpoint: mean survival time, higher = longer survival
Summary of the method: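 Antitumor effect is assessed in tumor-bearing animals. Survival in the compound arm is compared with a vehicle-dosed control arm and expressed as their quotient.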

[1] = dose: 100.0 mg/kg/injection, schedule: Q04DX003 (ip), vehicle: acetone
[2] = dose: 100.0 mg/kg/injection, schedule: Q01DX001 (ip), vehicle: saline
[3] = dose: 200.0 mg/kg/injection, schedule: Q01DX001 (ip), vehicle: saline
[4] = dose: 400.0 mg/kg/injection, schedule: Q01DX001 (ip), vehicle: saline
[5] = dose: 50.0 mg/kg/injection, schedule: Q01DX009 (ip), vehicle: saline
[6] = dose: 100.0 mg/kg/injection, schedule: Q01DX009 (ip), vehicle: saline
[7] = dose: 150.0 mg/kg/injection, schedule: Q01DX009 (ip), vehicle: Klucel (hydroxypropylcellulose) (HPC)
[8] = dose: 12.5 mg/kg/injection, schedule: Q01DX009 (ip), vehicle: saline with Tween-80
[9] = dose: 100.0 mg/kg/injection, schedule: Q01DX009 (ip), vehicle: saline with Tween-80
[10] = dose: 100.0 mg/kg/injection, schedule: Q04DX003 (ip), vehicle: saline with Tween-80
[11] = dose: 200.0 mg/kg/injection, schedule: Q01DX009 (ip), vehicle: saline with Tween-80
[12] = dose: 200.0 mg/kg/injection, schedule: Q04DX003 (ip), vehicle: saline with Tween-80
[13] = dose: 400.0 mg/kg/injection, schedule: Q04DX003 (ip), vehicle: saline with Tween-80
[14] = dose: 100.0 mg/kg/injection, schedule: Q04DX002 (ip), vehicle: Klucel (hydroxypropylcellulose) (HPC)
[15] = dose: 100.0 mg/kg/injection, schedule: Q01DX009 (ip), vehicle: Klucel (hydroxypropylcellulose) (HPC)
[16] = dose: 100.0 mg/kg/injection, schedule: Q04DX003 (ip), vehicle: Klucel (hydroxypropylcellulose) (HPC)
[17] = dose: 200.0 mg/kg/injection, schedule: Q01DX009 (ip), vehicle: Klucel (hydroxypropylcellulose) (HPC)
[18] = dose: 200.0 mg/kg/injection, schedule: Q04DX003 (ip), vehicle: Klucel (hydroxypropylcellulose) (HPC)
[19] = dose: 400.0 mg/kg/injection, schedule: Q01DX009 (ip), vehicle: Klucel (hydroxypropylcellulose) (HPC)
[20] = dose: 400.0 mg/kg/injection, schedule: Q04DX003 (ip), vehicle: Klucel (hydroxypropylcellulose) (HPC)
[21] = dose: 50.0 mg/kg/injection, schedule: Q04DX002 (ip), vehicle: saline with Tween-80
[22] = dose: 100.0 mg/kg/injection, schedule: Q04DX002 (ip), vehicle: saline with Tween-80
[23] = dose: 200.0 mg/kg/injection, schedule: Q04DX002 (ip), vehicle: saline with Tween-80
[24] = dose: 200.0 mg/kg/injection, schedule: Q04DX002 (ip), vehicle: Klucel (hydroxypropylcellulose) (HPC)
[25] = dose: 400.0 mg/kg/injection, schedule: Q04DX002 (ip), vehicle: Klucel (hydroxypropylcellulose) (HPC)
[26] = dose: 400.0 mg/kg/injection, schedule: Q04DX002 (ip), vehicle: saline with Tween-80
[27] = dose: 100.0 mg/kg/injection, schedule: Q01DX001 (ip), vehicle: carboxymethylcellulose (CMC)

Measured: T/C

CCOC(=O)Cc1cc(=O)c2ccccc2[nH]1
inactive: [1] 96 % of control | dose: 200.0 mg/kg/injection, schedule: Q04DX003 (ip), vehicle: acetone 97 % of control | dose: 400.0 mg/kg/injection, schedule: Q04DX003 (ip), vehicle: acetone 103 % of control

CC(=O)O[C@@H]1[C@H]2O[C@H]2[C@H]2O[C@@]2(COC(=O)c2ccccc2)[C@H]1OC(C)=O
inactive: dose: 100.0 mg/kg/injection, schedule: Q01DX015 (ip), vehicle: carboxymethylcellulose (CMC) 108 % of control | dose: 200.0 mg/kg/injection, schedule: Q01DX015 (ip), vehicle: carboxymethylcellulose (CMC) 107 % of control | dose: 400.0 mg/kg/injection, schedule: Q01DX015 (ip), vehicle: carboxymethylcellulose (CMC) 90 % of control

CC(=O)OC1COC(SSC2OCC(OC(C)=O)C(OC(C)=O)C2OC(C)=O)C(OC(C)=O)C1OC(C)=O (configuration not stated)
inactive: [2] 89 % of control | [3] 89 % of control | [4] 101 % of control

O=C1C2C(C(=O)N1c1ccc([N+](=O)[O-])cc1)C1c3ccccc3C2C2CCCCN21 (configuration not stated)
inactive: [5] 95 % of control | dose: 50.0 mg/kg/injection, schedule: Q04DX003 (ip), vehicle: saline 104 % of control | [6] 92 % of control | dose: 100.0 mg/kg/injection, schedule: Q04DX003 (ip), vehicle: saline 97 % of control | dose: 200.0 mg/kg/injection, schedule: Q04DX003 (ip), vehicle: saline 88 % of control

Cc1cc(O)c2c(c1)OC(C)(C)C1=C2CC(C)CC1 (configuration not stated)
inactive: dose: 75.0 mg/kg/injection, schedule: Q01DX009 (ip), vehicle: Klucel (hydroxypropylcellulose) (HPC) 96 % of control | [7] 92 % of control | dose: 300.0 mg/kg/injection, schedule: Q01DX009 (ip), vehicle: Klucel (hydroxypropylcellulose) (HPC) 101 % of control

CCCCCCCCCC[As](=O)(O)CCCCCCCCCC
inactive: dose: 50.0 mg/kg/injection, schedule: Q01DX001 (ip), vehicle: saline 107 % of control | [2] 103 % of control | [3] 103 % of control | [4] 115 % of control

CC(C)=CCC(C#N)(CCN(C)C)c1ccc2ccccc2c1 (configuration not stated)
inactive: dose: 25.0 mg/kg/injection, schedule: Q01DX009 (ip), vehicle: saline 95 % of control | [5] 97 % of control | [6] 95 % of control

CCc1cc2c(cc1C(=O)CBr)C(C)(C)CCC2(C)C
inactive: dose: 6.25 mg/kg/injection, schedule: Q01DX009 (ip), vehicle: saline with Tween-80 103 % of control | [8] 109 % of control | dose: 12.5 mg/kg/injection, schedule: Q04DX003 (ip), vehicle: saline 100 % of control | dose: 25.0 mg/kg/injection, schedule: Q04DX003 (ip), vehicle: saline 102 % of control

CCCCCCOC(CN(C)C)C(Cl)(Cl)Cl (configuration not stated)
inactive: [9] 101 % of control | [10] 93 % of control | [11] 98 % of control | [12] 95 % of control | [13] 98 % of control

CCSCCOP(=O)(N(C)C)N(C)C
inactive: dose: 25.0 mg/kg/injection, schedule: Q04DX002 (ip), vehicle: Klucel (hydroxypropylcellulose) (HPC) 96 % of control | dose: 50.0 mg/kg/injection, schedule: Q04DX002 (ip), vehicle: Klucel (hydroxypropylcellulose) (HPC) 96 % of control | [14] 93 % of control and 98 % of control

Cc1ccccc1-n1c(C)cc(C(=O)O)c1C
inactive: [15] 110 % of control | [16] 102 % of control | [17] 93 % of control | [18] 106 % of control | [19] 98 % of control | [20] 88 % of control

CC(=O)OC1C=C2CCCCC2(C)CC1 (configuration not stated)
inactive: [21] 96 % of control | [22] 96 % of control | [23] 111 % of control

CC(C)C(CN=C(N)N)c1cccc2ccccc12 (configuration not stated)
inactive: [8] 100 % of control | dose: 25.0 mg/kg/injection, schedule: Q01DX009 (ip), vehicle: saline with Tween-80 103 % of control | dose: 25.0 mg/kg/injection, schedule: Q04DX002 (ip), vehicle: saline with Tween-80 100 % of control | dose: 50.0 mg/kg/injection, schedule: Q01DX009 (ip), vehicle: saline with Tween-80 91 % of control | [21] 100 % of control

O=[N+]([O-])c1cccc(/C=C/c2ccc(S(=O)(=O)F)cc2)c1
inactive: [10] 95 % of control | [12] 90 % of control

CC1(C)C2CCC1(C)C(Oc1ccccc1)C2 (configuration not stated)
inactive: [9] 100 % of control | [11] 98 % of control

OCSCc1c(Cl)c(Cl)c(Cl)c(Cl)c1Cl
inactive: [14] 103 % of control | [24] 103 % of control | [25] 98 % of control

OCC(O)C(O)C(O)C1SCCS1 (configuration not stated)
inactive: [2] 103 % of control | [3] 106 % of control | [4] 104 % of control

CCC(C)C(NC(C)=O)C(=O)O (configuration not stated)
inactive: [22] 102 % of control | [16] 88 % of control | [23] 94 % of control | [18] 91 % of control | [26] 102 % of control | [20] 89 % of control

ClCc1noc(-c2ccccc2)n1
inactive: [22] 98 % of control | [23] 95 % of control | [26] 101 % of control

O=[N+]([O-])c1ccc(C[N+]2(CCC[N+]3(Cc4ccc([N+](=O)[O-])cc4)CCCC3)CCCC2)cc1
inactive: dose: 9.38 mg/kg/injection, schedule: Q01DX001 (ip), vehicle: other 107 % of control | dose: 18.75 mg/kg/injection, schedule: Q01DX001 (ip), vehicle: other 105 % of control

c1ccc2c(c1)NC1(CCCCC1)S2
inactive: [15] 99 % of control | [16] 104 % of control | [17] 99 % of control | [18] 91 % of control | [19] 91 % of control | [20] 93 % of control

c1ccc(CN2CCCCc3ccccc32)cc1
inactive: [10] 93 % of control | [12] 88 % of control

CC(C)NCCOC(=O)c1ccc(N)cc1
inactive: dose: 75.0 mg/kg/injection, schedule: Q01DX001 (ip), vehicle: saline 102 % of control | dose: 150.0 mg/kg/injection, schedule: Q01DX001 (ip), vehicle: saline 105 % of control

CCCCC(CC)CC1CCCCC1O (configuration not stated)
inactive: [15] 95 % of control | [16] 97 % of control | [17] 93 % of control | [18] 96 % of control | [20] 96 % of control

Cc1ccc(Br)cc1Br
inactive: [2] 96 % of control | [3] 100 % of control | [4] 94 % of control

CCOc1ccccc1NC(=O)Nc1cccc(Cl)c1
inactive: [16] 100 % of control | [17] 94 % of control | [18] 100 % of control | [19] 97 % of control | [20] 104 % of control

Cc1cccc(NC(=O)Oc2ccc3c(C)cc(=O)oc3c2)c1
inactive: [15] 110 % of control | [14] 93 % of control | [17] 98 % of control | [24] 96 % of control | [19] 94 % of control | [25] 93 % of control

CNC(=S)n1ncnc1NC=O
inactive: [1] 98 % of control

O=C(Oc1cccc(O)c1)c1ccccc1
inactive: [15] 100 % of control | [17] 102 % of control | [19] 94 % of control

CC(C)CN(CC(C)C)C(=O)CCl
inactive: [27] 106 % of control

O=P(O)(O)c1ccccc1
inactive: dose: 50.0 mg/kg/injection, schedule: Q01DX001 (ip), vehicle: carboxymethylcellulose (CMC) 96 % of control | [27] 107 % of control | dose: 200.0 mg/kg/injection, schedule: Q01DX001 (ip), vehicle: carboxymethylcellulose (CMC) 98 % of control

[N-]=[N+]=Nc1ccc(-c2nc(N)[nH]c(=O)c2Br)cc1
inactive: [16] 93 % of control | [18] 86 % of control | [20] 100 % of control

O=C(O)C1CCC(=O)N1C(=O)OCc1ccccc1 (configuration not stated)
inactive: [10] 100 % of control | [12] 97 % of control | [13] 95 % of control

O=C(O)c1ccc2c(c1)NC(c1cccc3ccccc13)NC2=O (configuration not stated)
inactive: dose: 50.0 mg/kg/injection, schedule: Q01DX009 (ip), vehicle: Klucel (hydroxypropylcellulose) (HPC) 93 % of control | [15] 94 % of control | [7] 96 % of control
